Bridge positions count the residues as written; N and C are the ends. Peptide text beside a SMILES is read from it.
Assays:
Prolyl endopeptidase = molecular target: T1, Prolyl endopeptidase (Homo sapiens, UniProt P48147); test: Inhibition of prolyl oligopeptidase (unknown origin)
T1 sequence (P48147 whole entry): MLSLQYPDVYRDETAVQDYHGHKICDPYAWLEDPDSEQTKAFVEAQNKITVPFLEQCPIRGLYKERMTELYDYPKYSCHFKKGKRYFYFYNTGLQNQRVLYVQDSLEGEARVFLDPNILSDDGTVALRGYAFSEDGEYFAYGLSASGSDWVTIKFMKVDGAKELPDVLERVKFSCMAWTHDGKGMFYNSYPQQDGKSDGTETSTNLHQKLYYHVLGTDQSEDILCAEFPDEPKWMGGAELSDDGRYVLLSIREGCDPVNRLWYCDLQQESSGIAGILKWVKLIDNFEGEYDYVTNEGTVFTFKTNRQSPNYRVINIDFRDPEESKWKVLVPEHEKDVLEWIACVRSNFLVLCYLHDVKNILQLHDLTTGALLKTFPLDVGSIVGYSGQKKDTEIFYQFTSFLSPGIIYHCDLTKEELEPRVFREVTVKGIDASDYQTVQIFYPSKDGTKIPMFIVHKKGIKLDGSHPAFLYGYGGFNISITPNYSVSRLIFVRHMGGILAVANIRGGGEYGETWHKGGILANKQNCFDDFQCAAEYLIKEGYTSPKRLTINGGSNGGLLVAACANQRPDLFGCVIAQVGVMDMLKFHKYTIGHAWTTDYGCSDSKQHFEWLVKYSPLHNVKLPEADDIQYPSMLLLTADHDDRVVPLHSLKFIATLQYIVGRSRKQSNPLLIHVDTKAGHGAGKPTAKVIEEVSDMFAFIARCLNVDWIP

cells = settings: Homo sapiens, HL-60, 48 h
Description: Cytotoxicity against human HL60 cells after 48 hrs by MTT assay

Structure (SMILES) | IC50 (Prolyl endopeptidase) | IC50 (cells)
CC[C@H](C)[C@H](NC(=O)[C@H](Cc1ccccc1)NC(=O)[C@@H](NC(=O)[C@H](Cc1cnc[nH]1)NC(=O)CNC(=O)CNC(=O)[C@H](Cc1ccccc1)NC(=O)[C@H](CC(C)C)NC(=O)[C@@H]1CC(=O)NCC(=O)N[C@@H](Cc2ccc(O)cc2)C(=O)N2CCC[C@H]2C(=O)N[C@@H](Cc2c[nH]c3ccccc23)C(=O)N[C@@H](Cc2c[nH]c3ccccc23)C(=O)N[C@@H](CC(=O)O)C(=O)N[C@@H](Cc2ccc(O)cc2)C(=O)N[C@@H](CCCNC(=N)N)C(=O)N1)[C@@H](C)O)C(=O)N[C@@H](CO)C(=O)N1CCC[C@H]1C(=O)O (GYPWWDYRDLFGGHTFISP-OH; lactam N-9) | 1.4 µM | 
CC(C)(C)[Si](C)(C)Oc1ccc(C2=C3OCOC3=C(c3ccc(O[Si](C)(C)C(C)(C)C)cc3)C(=O)C2=O)cc1 | 15.1 µM | 2.8 µM
CC(=O)Oc1c(OC(C)=O)c(-c2ccc(O[Si](C)(C)C(C)(C)C)cc2)c2c(c1-c1ccc(O[Si](C)(C)C(C)(C)C)cc1)OCO2 |  | 2.9 µM
CC(=O)OC1=C(c2ccc(O)cc2)C(=O)C(OC(C)=O)=C(c2ccc(O)cc2)C1=O |  | > 20 µM
COCc1c(COC)c(-c2ccc(O[Si](C)(C)C(C)(C)C)cc2)c(COC)c(COC)c1-c1ccc(O[Si](C)(C)C(C)(C)C)cc1 | > 50 µM | 14.4 µM
COCC1=C(c2ccc(O[Si](C)(C)C(C)(C)C)cc2)C(=O)C(COC)=C(c2ccc(O[Si](C)(C)C(C)(C)C)cc2)C1=O |  | 6.5 µM
CC(=O)Oc1c(OC(C)=O)c(-c2ccc(O)cc2)c(O)c(O)c1-c1ccc(O)cc1 |  | > 20 µM
COCc1c(OC(C)=O)c(-c2ccc(O[Si](C)(C)C(C)(C)C)cc2)c(COC)c(OC(C)=O)c1-c1ccc(O[Si](C)(C)C(C)(C)C)cc1 | > 50 µM | 19.1 µM
CC(=O)Oc1c(OC(C)=O)c(-c2ccc(O[Si](C)(C)C(C)(C)C)cc2)c2c(c1-c1ccc(O[Si](C)(C)C(C)(C)C)cc1)OC(OC(C)=O)O2 | 3.5 µM | 4.2 µM
